According to publication PMC5321741, “Arylmethylamino steroids as antiparasitic agents” (Nature Communications, 2017):
Values after ≈ are worked out from the molar mass of the structure shown. Like-named read-outs stand apart in the source and are kept apart here.

Legend:
[1] = test system: Lichtheimia corymbifera JMRC:SF:09682; experiment: spore inhibition test; type: cell-based; conditions: 48 h; start concentration 1 mg/ml (1o, 2o), 100 µg/ml (Amphotericin B)
Method: (§1) The following test organisms were used for their susceptibility to compounds 1o and 2o: Alternaria alternata JMRC:SF:09317, Arthroderma benhamiae JMRC:ST:35888, Aspergillus fumigatus JMRC:Afum:00073=ATCC 46645, Aspergillus terreus JMRC:SF:06307, Candida albicans JMRC:ST:35864, Lichtheimia corymbifera JMRC:SF:09682, Penicillium chrysogenum JMRC:SF:10137, Rhizopus arrhizus (syn. R. oryzae) JMRC:SF:05857=ATCC 56536, CBS 112.07.
(§2) Fungi were grown on 3% malt extract solidified medium for 1 to 2 weeks at room temperature. Then the plates were washed with 7 ml sterile distilled water, and the spore suspension was filtered through 4 layers of sterile Miracloth (Kalbiochem, USA) to remove the hyphae. The concentration of the spore suspension was set to 2 × 10^4 conidia ml^−1 for the in vitro assays.
(§3) The spore inhibition assay took place in 96-well microplates (flat base). 50 μl of the prepared spore suspension was seeded and then mixed with 50 μl of the respective inhibitor substance. Tests were started with end concentrations of 1 mg ml^−1 and were then reduced in a minimum of 10 halving steps. Thus a 2 mg ml^−1 stock solution diluted in half ten times with solvent (distilled water, 2% DMSO in distilled water, or 2% DMF in distilled water) and each 50 μl was transferred to 50 μl spore suspension. For each test substance, 12 holes on the microtiter plate were filled. After 24 h incubation (25 °C), the germination of the spores was macroscopically and microscopically examined directly in the microtiter plate via measurement of the optical density and light microscopy using an inverse stereomicroscope with subsequent photodocumentation, respectively. If necessary, the plates were further incubated for another 24 or 48 h, depending on the extent of fungal germination.

[2] = test system: Penicillium chrysogenum JMRC:SF:10137; experiment: spore inhibition test; type: cell-based; conditions: 48 h
Method: as §1, §2, §3

[3] = test system: Alternaria alternata JMRC:SF:09317; experiment: spore inhibition test; type: cell-based; conditions: 48 h; start concentration 1 mg/ml (1o, 2o), 100 µg/ml (Amphotericin B)
Method: as §1, §2, §3

[4] = test system: Arthroderma benhamiae JMRC:ST:35888; experiment: spore inhibition test; type: cell-based; conditions: 72 h
Method: as §1, §2, §3

[5] = test system: P. falciparum strain Dd2; experiment: 72 h 3H-hypoxanthine incorporation assay, chloroquine-resistant strain; type: cell-based; conditions: Plasmodium falciparum
[6] = test system: HUVEC; experiment: antiproliferative activity on HUVEC cells; type: cell-based; conditions: Homo sapiens, HUVEC, 72 h
Outline: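 K-562 and HeLa seeded at ∼10,000 cells/well; HeLa preincubated 48 h without compound before cytotoxicity testing. 72 h exposure at 37 °C, 5% CO2; K-562 counted by electronic cell analyzer, HUVEC and HeLa glutaraldehyde-fixed, methylene blue-stained, OD 660 nm; GI50 (antiproliferative) and CC50 (cytotoxicity) derived.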

[7] = in vivo; parameters: species or system C57BL/6 mice; conditions: C57BL/6, mouse
Method: (§4) The compound was applied at an accumulative dose of 100 mg kg^−1 (per os (p.o.). as well as intraperitoneally (i.p.)). The first application was 5 mg kg^−1, 2 h later 15 mg kg^−1, 2 h later 30 mg kg^−1 and again 2 h later 50 mg kg^−1. […] Moreover, we performed pharmacokinetics studies in mice, dosing i.v., i.p. and p.o. (Supplementary Table 5). […] In contrast, high exposure and sustained levels of ∼2 μM were obtained after i.p. dosing at 100 mg kg^−1.
Parameter (n=3/time point)
Supplementary Table 5. Mouse pharmacokinetics of compound 1o.

[8] = aqueous kinetic solubility; type: physicochemical; conditions: kinetic from dmso stock
Method: Pharmacokinetic data were obtained for compound 1o at the Sanford-Burnham Medical Research Institute according to established procedures. Compound solubility in an aqueous solution was measured using an automated kinetic solubility method. The concentration of the compound in a saturated pH-buffered aqueous solution was determined via UV absorbance (250–498 nm) and compared with the spectra of a precipitation-free reference solution. The plasma stability of the compound was determined at a single concentration using species-specific plasma. The percentage of parent compound remaining after 3 h was determined via LC-MS/MS. The percentage of compound 1o bound to plasma proteins was determined through rapid equilibrium dialysis and quantified via LC-MS/MS. Metabolic stability of the compound was determined at a single concentration using species-specific liver microsomes that contained cytochrome P450s, flavin-monooxygenases, carboxyl-esterases, epoxide hydrolases, and other drug-metabolizing enzymes. The quantification was carried out via LC-MS/MS. Membrane permeability of compound 1o was measured using an in vitro model for the passive transport from the gastrointestinal tract into the blood system. A double-sink parallel artificial membrane permeability assay PAMPA, in a 96-well format was employed.

[9] = acute toxicity in vivo model; parameters: species or system mice; conditions: accumulative dose 100 mg kg−1 (5, 15, 30, 50 mg kg−1 at 2 h intervals), p.o. and i.p.
Method: as §4
In addition, cytotoxicity tests with compound 1o were carried out on immortalized human hepatocytes, Fa2N-4 cells, resulting in an LC50>50 μM. The best compound 1o has furthermore been tested in an acute toxicity in vivo model at the Swiss Tropical Institute, Basel.

[10] = start concentration 1 mg/ml (1o, 2o), 100 µg/ml (Amphotericin B)
[11] = start concentration 1 mg/ml, given in mg

COc1ccc2c(c1)CCC1C2CC[C@@]2(C)C1CC[C@@H]2NCc1cc2ccccc2cc1O (stereo partly shown) [2o]
antifungal profile, 1st value = microscopic visualization-based observation, Lichtheimia corymbifera [1]: 62.5 | antifungal profile, 2nd value = optical density-based observation, Lichtheimia corymbifera [1]: 7.8 | antifungal profile, 1st value = microscopic visualization-based observation, Penicillium chrysogenum [2, 10]: 250 | antifungal profile, 2nd value = optical density-based observation, Penicillium chrysogenum [2, 10]: 125 | antifungal profile, 1st value = microscopic visualization-based observation, Alternaria alternata [3]: 125 | antifungal profile, 2nd value = optical density-based observation, Alternaria alternata [3]: 15,6 | antifungal profile, 1st value = microscopic visualization-based observation, Arthroderma benhamiae [4, 10]: 31.2 | antifungal profile, 2nd value = optical density-based observation, Arthroderma benhamiae [4, 10]: 2 | IC50 [5]: 0.002 ± 0.0012 µM | GI50 [6]: 13.8 µM

COc1ccc2c(c1)CCC1C2CC[C@@]2(C)C1CC[C@H]2NCc1cc2ccccc2cc1O (stereo partly shown) [1o]
AUC(0-t) ([7]; ip, 100 mg/kg): 13000 ng·h/mL | Cmax ([7]; ip, 100 mg/kg): 850 ng/mL | Tmax ([7]; ip, 100 mg/kg): 3 h | bioavailability ([7]; ip, 100 mg/kg): 24% | half-life ([7]; ip, 100 mg/kg): > 8 h | AUC(0-t) ([7]; iv, 1 mg/kg): 567 ng·h/mL | Vd ([7]; iv, 1 mg/kg): 6.4 L/kg | clearance ([7]; iv, 1 mg/kg): 29.6 mL/min/kg | half-life ([7]; iv, 1 mg/kg): > 8 h | AUC(0-t) ([7]; po, 100 mg/kg): 622 ng·h/mL | Cmax ([7]; po, 100 mg/kg): 43 ng/mL | Tmax ([7]; po, 100 mg/kg): 8.25 h | bioavailability ([7]; po, 100 mg/kg): < 5% | half-life ([7]; po, 100 mg/kg): > 8 h | antifungal profile, 1st value = microscopic visualization-based observation, Lichtheimia corymbifera [1]: 500 | antifungal profile, 2nd value = optical density-based observation, Lichtheimia corymbifera [1]: 62.5 | antifungal profile, 2nd value = optical density-based observation, Penicillium chrysogenum [2, 10]: 125 | antifungal profile, 1st value = microscopic visualization-based observation, Penicillium chrysogenum [2, 11]: 1 mg | antifungal profile, 1st value = microscopic visualization-based observation, Alternaria alternata [3]: 500 | antifungal profile, 2nd value = optical density-based observation, Alternaria alternata [3]: 250 | antifungal profile, 1st value = microscopic visualization-based observation, Arthroderma benhamiae [4, 10]: 500 | antifungal profile, 2nd value = optical density-based observation, Arthroderma benhamiae [4, 11]: 1 mg | solubility ([8]; Pion's buffer, aqueous buffer, pH 5.0, read-out: Aqueous Solubility (Pion's Buffer)): 0.26 µg/mL (≈ 0.589 µM) | solubility ([8]; Pion's buffer, pH 6.2, aqueous buffer, read-out: Aqueous Solubility (Pion's Buffer)): 0.38 µg/mL (≈ 0.86 µM) | solubility ([8]; Pion's buffer, pH 7.4, aqueous buffer, read-out: Aqueous Solubility (Pion's Buffer)): 0.3 µg/mL (≈ 0.679 µM) | solubility kinetic ([8]; pH-buffered aqueous solution, aqueous buffer, across a range of pH): < 2.3 µM | solubility ([8]; pH-buffered aqueous solution, aqueous buffer, across a range of pH, read-out: aqueous solubility): < 1 µg/mL | acute toxicity symptoms [9]: No acute toxicity symptoms were observed | IC50 [5]: 0.001 ± 0.0009 µM | GI50 [6]: 108 µM
